# Read-outs that look alike come from different tables or passages of the source.
# Columns and labels:
# [1] = tested on: endogenous PTH 1-84; settings: healthy volunteers, no further suppression at higher doses, cited from earlier work
# [2] = tested on: individuals with hypoparathyroidism; format: in vivo, human; settings: for Active Vitamin D dose / Calcium supplement dose / Serum Calcium: mean of Compound 1 group
# From the text: PaTHway is a phase 3, multicenter (North America and Europe), randomized, double-blind, placebo-controlled, parallel-group, 26-week trial with an open-label extension of 156 weeks that evaluated the efficacy, safety, and tolerability of once-daily Compound 1 as PTH replacement therapy in individuals with hypoparathyroidism. All participants who completed the 26- week blinded treatment period were allowed to enroll in the 156-week open-label extension period. (ClinicalTrials.gov identifier: NCT04701203; EudraCT No.: 2020-003380-26).
# Once enrolled, participants were randomized 3:1 into 2 treatment groups: Compound 1 18 μg PTH(1-34)/day or placebo (excipient solution) mimicking 18 μg/day, both co-administered with conventional therapy (active vitamin D and elemental calcium).
# Randomization was stratified by etiology of hypoparathyroidism (postsurgical vs. non-surgical). In addition to frequent laboratory visits to measure serum calcium levels, the blinded treatment period included 10 clinic visits over 26 weeks. Once-daily treatment with Compound 1 or placebo was delivered by a modified Ypsomed UnoPen Fix pen injector using 31-gauge, 5 mm pen needles to deliver doses of 6-30 μg/injection in a volume of ≤100 μL to either abdomen or anterior thigh, rotating injection sites.
# All participants were initially prescribed Compound 1 18 μg PTH(1-34)/day or a corresponding volume of placebo and were individually and progressively titrated to an optimal dose (allowable range 6-60 μg/day) in increments of 3 μg/day. Titration of study drug and conventional therapy was performed according to a protocol-specified algorithm guided by serum calcium values (Example 2). The algorithm was intended to facilitate independence from conventional therapy by discontinuation of active vitamin D and calcium in response to reestablishment of physiological PTH signaling with Compound 1 treatment. In the setting of normocalcemia, the protocol directs incremental increases in study drug (Compound 1 or placebo) accompanied by stepwise reductions of active vitamin D by 33-50% of the starting dose, followed by reductions of calcium in at least 1500 mg/day increments once vitamin D has been discontinued.
# Participants were permitted to take elemental calcium <600 mg/day as a nutritional supplement if required to meet the generally recommended dietary intakes of calcium.
# Treatment with Compound 1 was carried out in accordance with Example 1.
substance,measurement,setting,value
"Compound 5: polypeptide having the sequence AVAEIQLMHQRAKWIQDARR RAFLHKLIAEIHTAEI, SEQ ID NO:122 (AVAEIQLMHQRAKWIQDARRRAFLHKLIAEIHTAEI; Artificial random coil) [reference compound]",dose able to suppress endogenous PTH 1-84,[1]; daily dosing,60 µg
palopegteriparatide [Compound 1],dose that fully suppresses endogenous PTH 1-84,[1],16 µg/day
same,time to complete discontinuation of active vitamin D,[2]; Compound 1 group,≤ 8 weeks
same,SAEs considered related to treatment,[2]; in vivo,one
same,participants reporting SAEs,[2]; in vivo,8.2%
same,Active Vitamin D dose,[2]; week 0,0.992 µg
same,Calcium supplement dose,[2]; week 0,1748.03 mg
same,Serum Calcium,[2]; week 0,8.8 mg/dL
same,Active Vitamin D dose,[2]; week 2,0.098 µg
same,Calcium supplement dose,[2]; week 2,1524.1 mg
same,Serum Calcium,[2]; week 2,9.8 mg/dL
same,Active Vitamin D dose,[2]; week 4,0.008 µg
same,Calcium supplement dose,[2]; week 4,548.77 mg
same,Serum Calcium,[2]; week 4,9.6 mg/dL
same,Active Vitamin D dose,[2]; week 6,0.004 µg
same,Calcium supplement dose,[2]; week 6,229.1 mg
same,Serum Calcium,[2]; week 6,9.7 mg/dL
same,Active Vitamin D dose,[2]; week 8,0 µg
same,Calcium supplement dose,[2]; week 8,105.74 mg
same,Serum Calcium,[2]; week 8,9.5 mg/dL
same,Active Vitamin D dose,[2]; week 10,0 µg
same,Calcium supplement dose,[2]; week 10,114.17 mg
same,Serum Calcium,[2]; week 10,9.5 mg/dL
same,Active Vitamin D dose,[2]; week 12,0 µg
same,Calcium supplement dose,[2]; week 12,102.46 mg
same,Serum Calcium,[2]; week 12,9.5 mg/dL
same,Active Vitamin D dose,[2]; week 16,0 µg
same,Calcium supplement dose,[2]; week 16,182.38 mg
same,Serum Calcium,[2]; week 16,9.3 mg/dL
same,Active Vitamin D dose,[2]; week 20,0 µg
same,Calcium supplement dose,[2]; week 20,300.83 mg
same,Serum Calcium,[2]; week 20,9.3 mg/dL
same,Active Vitamin D dose,[2]; week 26,0 µg
same,Calcium supplement dose,[2]; week 26,274.17 mg
same,Serum Calcium,[2]; week 26,8.9 mg/dL
same,mean serum calcium (sCa) levels,"[2]; when adequately titrated, all study visits",in the normal range
